Measured values reported in patent US8486647B2, “Neuropeptide release assay for sodium channels” (priority 2010, dated 2013).
Several values for one entry are separate records, joined by “and”; a condition that tells them apart may be missing. Equal entries are not always repeated.

What was measured:
Scn9a^3.1/3.1 DRG = assay: CGRP release assay, Scn9a^3.1/3.1 DRG; assay type: cell-based, mouse
Scn9a^+/+ DRG = assay: CGRP release assay, Scn9a^+/+ DRG; assay type: cell-based, mouse

| Compound | inflammatory mix-induced release of CGRP (Scn9a^3.1/3.1 DRG) | inflammatory mix-induced release of CGRP (Scn9a^+/+ DRG) | CGRP released (Scn9a^+/+ DRG) |
| --- | --- | --- | --- |
| CCN(CC)CC(=O)Nc1c(C)cccc1C [Lidocaine] | notably enhanced | – | – |
| NC1=N[C@H](O)[C@H]2[C@H]3O[C@]4(O)O[C@@H]([C@@H](O)[C@@]2(N1)[C@@H]4O)[C@]3(O)CO [TTX, Tetrodotoxin] | – | notably enhanced | – |
| ProTx-II [Pro-TXII] | – | notably enhanced | 186 ± 40 pg/mL and 126 ± 25 pg/mL |
